Reference: patent US11613552B2, “Pharmaceutical agents, compositions, and methods relating thereto” (Alltech, Inc., priority 2017, dated 2023)

Key:
[1] = test system: H4IIE cells; assay: Glucose production assay in H4IIE cells; assay type: cell-based, rat
Protocol: Equal numbers of Human HepG2 or rat H4IIE cells (1-1.5×10^5 cells/well) were seeded on 96 well plates in 10% FBS-containing media for 24 hr. Cells were then washed twice with PBS, and treated with various concentrations of compounds, metformin or insulin in 100 μl of glucose production media (glucose-free, phenol red-free DMEM media supplemented with 20 mM sodium lactate, 2 mM sodium pyruvate and 5 mM HEPES) at 37° C. for 24 hr (H4IIE cells only) or 48 hr (HepG2 cell only). Cells were also incubated with 0.24% DMSO (the maximal volume of DMSO solvent used in the experiments).
(§1) After the above treatments, 50 μl of culture media were collected, and subjected to glucose analysis using Molecular Probes Amplex Red glucose assay kit (Cat #A22189) according to the manufacturer's protocol. Cell numbers or viability in the culture plate after the above compound treatments were determined using Promega's CellTiter96® AQueous One Solution Cell Proliferation Assay kits, according to the manufacturer's protocol and instructions. In brief, after removing 50 μl of culture media for glucose assay, cells were incubated with AQueous One solution (25 μl stock solution and 50 μl prewarmed PBS/per well) at 37° C. for 1 hour, and the absorbance of OD490 nm in each sample was determined by the Bio-Tek microplate reader. Cell viability in culture wells were determined by the subtraction of OD490 nm in cultured cells with the OD490 nm in plain culture media (without seeding of cells). Glucose production in the culture cells were obtained by normalizing the glucose concentration in culture media by cell viability in each well. At least 3 samples per each treatment were examined for the above analysis. Data are presented as Mean±SEM of those samples. Experiments were repeated at least twice.
The half maximal inhibitory concentration (IC50 values) of Compound #43 or metformin for the inhibition of glucose production were determined using the ED50 Plus v1.0 online software.

[2] = test system: STZ-induced T1D mice; assay: Blood glucose in STZ-induced type 1 diabetic mice after acute treatment; assay type: in vivo, mouse; settings: 5.4 mg/kg ip, fasted
Protocol: Five-week-old C57/BL6 male mice were intraperitoneally injected with streptozotocin (STZ, 55 mg/kg mouse body weigh) daily for 5 days, and then housed in the vivarium for another 14 days for recovery. Blood glucose levels of these mice were measured using a glucometer. Those animals with a blood glucose level higher than 500 mg/dL were considered to be type I diabetic (T1D). These T1D mice with unfasted blood glucose levels between 500-550 mg/dL were fasted overnight and injected intraperitoneally with Compound #43 at a dose of 5.4 mg/kg body weight or physiological saline containing 2% DMSO (Compound #43 stock solvent). At 1, 2 and 3 hours post-injection, blood glucose levels in these mice were measured using the glucometer.

[3] = test system: HepG2 cells; assay: Cell viability (CellTiter96 AQueous One) in HepG2 cells; assay type: cell-based, human; settings: all tested doses, 48 hr
Protocol: as §1

[4] = Body weight, gross morphology and walking behavior of treated Lepr^db/db mice; assay type: in vivo
Protocol: Body weights of the above treated mice were recorded daily using a balance and any visible abnormal animal gross morphology and walking behavior were monitored daily. After the treatments, animals were fasted overnight and then subjected to blood glucose or HbA1c assays, glucose tolerance tests or tissue collections.
After the treatments for 43 days, animals were fasted overnight and then subjected to blood glucose and glucose tolerance tests. After daily treatments of these compounds for 90 days, sera from these animals were collected and then subjected to blood HbA1c assays.

[5] = test system: INSRβ/AS160; assay: Western blot of INSRβ and AS160 phosphorylation in HepG2 cells; assay type: cell-based, human; settings: 600 ppb, 30 and 60 minutes (FIG. 23)
Protocol: HepG2 cells were seeded on 6-well plates (7×10^5 cells/well) and cultured in 10% FBS EMEM media for 30 hr. Then these cells were washed twice with PBS to remove residual sera, and serum-starved in plain EMEM media overnight. These serum-starved HepG2 cells were treated without or with Compound #43 (600 ppb) in serum-free media for 0 minute (right before the treatment), 30 and 60 minutes.
After the above treatments, cultured HepG2 cells or differentiated C2C12 cells were rinsed twice with ice-cold PBS and lysed in ice-cold RIPA buffer containing complete proteinase and phosphatase inhibitors (Thermo-Fisher Scientific, Waltham, Mass.) on ice for 30 min. […] Protein levels in the supernatant of these cell lysates were determined using the Pierce Micro-BCA protein assay kit (Thermo Scientific-Piece Biotechnology, Rockford, Ill.) according to the manufacturer's protocol.
One hundred micrograms of skeletal muscle or liver tissue proteins, five micrograms of HepG2 cell protein extracts, or eight micrograms of differentiated C2C12 cell protein extracts were subjected to SDS-PAGE gel separation and then transferred to PVDF membranes, as described previously (Reddy et al. 2008 Science). […] Positive signals on the membrane blots were detected using the Amersham's enhanced chemiluminescence Western Blotting Prime Detection reagents (GE Healthcare Lifescience, Pittsburgh, Pa.). […]

C[Se]C[C@H]1O[C@@H](n2cnc3c(N)ncnc32)C(OC(C)=O)C1OC(C)=O (some centres unmarked) [Compound #43, Adenosine, 5′-Se-methyl-5′-selino-, 2′,3′-diacetate]
IC50 ([1]; Rattus norvegicus, H4IIE, 24 h, read-out: IC50 (inhibition of glucose production)): 17.8 µM
potency relative to metformin in inhibition of glucose production ([1]; cultured rat liver cells): at least 15 times
effect on glucose production in H4IIE cells ([1]; serum-free, 24 hr (FIG. 2)): dose-dependent decrease in glucose production
blood glucose levels ([2]; 2 and 3 hours (FIG. 28)): significant decrease in blood glucose levels
blood glucose levels ([2]; 1 hour (FIG. 28)): trend of decreased blood glucose levels
cell viability [3]: no significant decrease of cell viability
overt toxic effects (morphology, walking behavior, body weight) ([4]; 25 μg selenium or sulfur/kg ip daily, 3 months): no overt toxic effects
overt toxic effects (morphology, walking behavior, body weight) ([4]; 25 μg selenium/kg ip daily, 90 days, from 41 days of age): no overt toxic effects
visible toxic effects on gross morphological and walking behavior ([4]; acute single ip injection, 0.0054-5.4 mg/kg): did not cause any visible toxic effects
phosphorylated AS160 [5]: significant increase of phosphorylated AS160 at 5588
phosphorylated INSRβ at Y1146 [5]: significant increase of phosphorylated INSRβ at Y1146
